From patent US10111431B2, “Application of biofilm formation inhibiting compounds enhances control of citrus canker” (priority 2013, dated 2018)
Like-named read-outs stand apart in the source and are kept apart here.

Columns and labels:
[1] = tested on: X. citri subsp. citri on citrus fruit; test: Detached immature grapefruit fruit spray inoculation; type: in vivo, Xanthomonas citri subsp. citri; conditions: for decrease in CFU per square centimeter of fruit tissue compared with untreated control / canker symptom development on fruit surface (lesion numbers): D-leucine 10 mM, IAN 100 μg/ml; for canker symptom development on fruit surface (lesion numbers): applied along with pathogen, preliminary study; for log reduction in the number of CFU per square centimeter: fruit, 11 days after inoculation
[2] = tested on: X. citri subsp. citri strain 306; test: Determination of minimum inhibitory concentrations (MICs) in NB medium, 96-well plate; type: cell-based, Xanthomonas citri subsp. citri; conditions: Xanthomonas citri, 48 h
Protocol: Xac strain 306 was grown in NB at 28° C. with shaking at 200 rpm for 7 h. The cultures were standardized to an OD600 of 0.03 (5×10^7 colony forming unit (CFU)/mL) in NB and then aliquoted into wells of a 96-well plate, 190 μL per well. The initial test concentrations of the compounds were diluted (1:20) in the culture (10 μl of compound in 190 μl of culture) and incubated at 28° C. under stationary conditions. The cultures were monitored at 24 and 48 h at OD600, and the lowest concentration resulting in no growth after 48 h compared to the control samples was defined as the MIC for Xac strain 306. All determinations were conducted in eight replicate wells and repeated three times.

[3] = tested on: biofilm formation and copper resistance related genes in Xac 306; test: qRT-PCR differential gene expression; type: cell-based, Xanthomonas citri subsp. citri; conditions: for expression of genes important for biofilm formation (qRT-PCR): IAN 100 μg/mL or D-leucine 10 mM, NB, 48 h, 15 genes, gyrA control; for expression of galU, gumB, gumD, copA and copB in planktonic or biofilm cells: in the presence of CuSO4, data not shown
Protocol: To investigate the mechanisms of D-leucine and IAN inhibiting Xac 306 biofilm formation, qRT-PCR analysis was used to determine differential gene expression for Xac306 cells with and without IAN (100 μg/mL) or D-leucine (10 mM). For this analysis, Xac306 was cultured in NB medium with or without biofilm inhibitor at 28° C. without shaking. Cells were collected after 48 h of incubation by centrifugation at 12,000×g for 5 min at 4° C. and used for RNA extraction. For the analysis of gene expression in Xac 306 planktonic and biofilm cells with sub-MICs CuSO4 concentrations, we followed the same procedure described for evaluation of resistance of Xac biofilm cells to copper in glass tubes. Both biofilm cells attached to the glass tube at the medium-air interface and planktonic cells in culture were used. Cells collected after 48 h of incubation in the presence of CuSO4 were washed by centrifugation at 12,000×g for 5 min at 4° C. with diethylpyrocarbonate treated water. Cells collected from five tubes were combined and served as one biological replicate. The pellet was stored at −80° C. until RNA extraction. Total RNA of Xac306 cells was isolated using RNA protect bacterial reagent (Qiagen, Valencia, Calif.) and RNeasy Mini Kit (Qiagen, Valencia, Calif.), following the manufacturer's instructions. The contaminated genomic DNA was removed using a TURBO DNA-free kit (Ambion, Austin, Tex.). RNA purity and quality were evaluated with a NanoDrop ND-1000 spectrophotometer (NanoDrop Technologies, Wilmington, Del.).
A one-step QRT-PCR was conducted using a 7500 fast real-time PCR system (Applied Biosystems, Foster City, Calif.) with a QuantiTect SYBR green RT-PCR kit (Qiagen, Valencia, Calif.) following the manufacturer's instructions. The gene specific primers (Table 1) were designed based on the genome sequence of Xac strain 306 (da Silver et al., 2002). In the biofilm inhibition mechanism studies, those primers targeted fifteen genes that were previously identified to be related bioflim formation in Xac strain 306 (Li and Wang, 2011). In the copper resistance analysis, those primers targeted the gum genes gumB and gumD polysaccharides—related gene galU, and copper resistance-related genes copA and copB (Teixeira et al., 2008; Behlau et al., 2012). The DNA gyrase subunit A encoding gene gyrA was used as endogenous control. The relative fold change in gene expression was calculated using the formula 2^−ΔΔCT (Livak and Schmittgen, 2001). qRT-PCR was repeated twice with four independent biological replicates each time.

CC(C)C[C@@H](N)C(=O)O [D-leucine]
decrease in CFU per square centimeter of fruit tissue compared with untreated control [1]: approximately 50 fold
canker symptom development on fruit surface (lesion numbers) [1]: able to reduce canker symptom development
log reduction in the number of CFU per square centimeter [1]: ~1.6 log
MIC [2]: 16 mM
expression of genes important for biofilm formation (qRT-PCR) [3]: no induction or repression of any of the tested genes
expression of galU, gumB, gumD, copA and copB in planktonic or biofilm cells [3]: did not affect express of any of the gene tested

N#CCc1c[nH]c2ccccc12 [IAN, 3-indolylacetonitrile]
decrease in CFU per square centimeter of fruit tissue compared with untreated control [1]: approximately 50 fold
canker symptom development on fruit surface (lesion numbers) [1]: able to reduce canker symptom development
log reduction in the number of CFU per square centimeter [1]: ~1.8 log
MIC ([2]; compound alone, NB medium, 28° C., stationary, OD600, read-out: MIC): 200 µg/mL
expression of genes important for biofilm formation (qRT-PCR) [3]: repression of chemotaxis and motility genes cheY, motB and pilB
expression of galU, gumB, gumD, copA and copB in planktonic or biofilm cells [3]: did not affect express of any of the gene tested
